What was measured:
[1] = test system: Danio rerio embryo; settings: exposure time: 4 dpf
Protocol: (§1)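 Zebrafish embryos (UFZ-OBI strain) were exposed from 2 hpf for 48 h (2 dpf) or 96 h (4 dpf) at 28 °C; spontaneous tail coiling was scored at 25 hpf. Morphological features from automated image analysis (FishInspector), heart rate and locomotor response were fitted with drc models. Quantal endpoints were dichotomised at 2.5 SD from controls and fitted with a log-logistic model; heart rate, pigmentation and STC were normalised to the replicate control mean. Betamethasone was tested as betamethasone dipropionate, diflorasone as diflorasone diacetate.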

[2] = test system: Danio rerio embryo; assay: EC50 Eye-jaw distance_Decrease; settings: exposure time: 4 dpf
Protocol: as §1

[3] = test system: Danio rerio embryo; assay: EC10 Eye-jaw distance_Decrease; higher = less potent; settings: exposure time: 4 dpf
Protocol: as §1

[4] = test system: Danio rerio embryo; assay: EC20 Pigmentation decrease; higher = less potent; settings: exposure time: 2 dpf
Protocol: as §1

[5] = test system: Danio rerio embryo; assay: EC50 Curvature_Increase; settings: exposure time: 2 dpf
Protocol: as §1

[6] = test system: Danio rerio embryo
Protocol: as §1

[7] = test system: Danio rerio embryo; assay: EC20 Body length_Decrease; higher = less potent
Protocol: as §1

[8] = test system: Danio rerio embryo; assay: EC10 LMR ligth decrease; higher = less potent; settings: exposure time: 4 dpf
Protocol: as §1

[9] = test system: Danio rerio embryo; assay: EC20 Pericard size_Increase; higher = less potent
Protocol: as §1

[10] = test system: Danio rerio embryo; assay: EC10 Body length_Decrease; higher = less potent
Protocol: as §1

[11] = test system: Danio rerio embryo; assay: EC20 Any effect; higher = less potent
Protocol: as §1

[12] = test system: Danio rerio embryo; assay: EC20 LMR ligth decrease; higher = less potent; settings: exposure time: 4 dpf
Protocol: as §1

[13] = test system: Danio rerio embryo; assay: EC20 LMR dark; higher = less potent; settings: exposure time: 4 dpf
Protocol: as §1

[14] = test system: Danio rerio embryo; assay: EC10 Pigmentation decrease; higher = less potent; settings: exposure time: 2 dpf
Protocol: as §1

[15] = test system: Danio rerio embryo; assay: EC20 Otolith-eye distance_Decrease; higher = less potent; settings: exposure time: 4 dpf
Protocol: as §1

[16] = test system: Danio rerio embryo; assay: EC10 Curvature_Increase; higher = less potent; settings: exposure time: 2 dpf
Protocol: as §1

[17] = test system: Danio rerio embryo; assay: EC10 Any effect; higher = less potent
Protocol: as §1

[18] = test system: Danio rerio embryo; assay: EC10 Pericard size_Increase; higher = less potent
Protocol: as §1

[19] = test system: Danio rerio embryo; assay: EC20 STC bell shape; higher = less potent; settings: exposure time: 25 h
Protocol: as §1

[20] = test system: Danio rerio embryo; assay: EC50 Body length_Decrease
Protocol: as §1

[21] = test system: Danio rerio embryo; assay: EC20 Curvature_Increase; higher = less potent; settings: exposure time: 2 dpf
Protocol: as §1

[22] = test system: Danio rerio embryo; assay: EC50 Pericard size_Increase
Protocol: as §1

[23] = test system: Danio rerio embryo; assay: spontaneous tail coiling frequency (coils/min/embryo); higher = more spontaneous movement; settings: 25 hpf
Protocol: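 Spontaneous tail coilings of zebrafish embryos exposed from 2 hpf were recorded at 24-25 hpf in 1-min videos and detected by a KNIME workflow from grey-value variance. Betamethasone was tested as the dipropionate, diflorasone as the diacetate.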

[24] = test system: Danio rerio embryo; assay: EC10 LMR dark; higher = less potent; settings: exposure time: 4 dpf
Protocol: as §1

[25] = test system: Danio rerio embryo; assay: EC10 STC bell shape; higher = less potent; settings: exposure time: 25 h
Protocol: as §1

[26] = test system: Danio rerio embryo; assay: EC20 Eye-jaw distance_Decrease; higher = less potent; settings: exposure time: 4 dpf
Protocol: as §1

[27] = test system: Danio rerio embryo; settings: exposure time: 2 dpf
Protocol: as §1

[28] = test system: Danio rerio embryo; assay: EC10 Otolith-eye distance_Decrease; higher = less potent; settings: exposure time: 4 dpf
Protocol: as §1

[29] = test system: Danio rerio embryo; assay: EC50 Otolith-eye distance_Decrease; settings: exposure time: 4 dpf
Protocol: as §1

O=C(O)Cc1ccccc1Nc1c(Cl)cccc1Cl [Diclofenac]
Settings | EC10 Curvature Increase [µM] | EC10 Eye-jaw distance Decrease [µM] | EC10 LMR dark [µM] | EC10 LMR ligth decrease [µM] | EC10 Otolith-eye distance Decrease [µM] | EC10 Pigmentation decrease [µM] | EC10 STC bell shape [µM] | EC20 Curvature Increase [µM] | EC20 Eye-jaw distance Decrease [µM] | EC20 LMR dark [µM] | EC20 LMR ligth decrease [µM] | EC20 Otolith-eye distance Decrease [µM] | EC20 Pigmentation decrease [µM] | EC20 STC bell shape [µM] | EC50 Curvature Increase [µM] | EC50 Eye-jaw distance Decrease [µM] | EC50 LMR dark [µM] | EC50 Otolith-eye distance Decrease [µM] | EC50 Pigmentation decrease [µM]
[1] | – | – | – | – | – | – | – | – | – | – | – | – | – | – | – | – | 8.07 | – | –
[2] | – | – | – | – | – | – | – | – | – | – | – | – | – | – | – | 10.1 | – | – | –
[3] | – | 5.49 | – | – | – | – | – | – | – | – | – | – | – | – | – | – | – | – | –
[4] | – | – | – | – | – | – | – | – | – | – | – | – | 13.2 | – | – | – | – | – | –
[5] | – | – | – | – | – | – | – | – | – | – | – | – | – | – | 13.2 | – | – | – | –
[8] | – | – | – | 5.85 | – | – | – | – | – | – | – | – | – | – | – | – | – | – | –
[12] | – | – | – | – | – | – | – | – | – | – | 6.64 | – | – | – | – | – | – | – | –
[13] | – | – | – | – | – | – | – | – | – | 6.84 | – | – | – | – | – | – | – | – | –
[14] | – | – | – | – | – | 10.9 | – | – | – | – | – | – | – | – | – | – | – | – | –
[15] | – | – | – | – | – | – | – | – | – | – | – | 6.89 | – | – | – | – | – | – | –
[16] | 11.5 | – | – | – | – | – | – | – | – | – | – | – | – | – | – | – | – | – | –
[19] | – | – | – | – | – | – | – | – | – | – | – | – | – | 37.8 | – | – | – | – | –
[21] | – | – | – | – | – | – | – | 12.1 | – | – | – | – | – | – | – | – | – | – | –
[24] | – | – | 6.21 | – | – | – | – | – | – | – | – | – | – | – | – | – | – | – | –
[25] | – | – | – | – | – | – | 32.4 | – | – | – | – | – | – | – | – | – | – | – | –
[26] | – | – | – | – | – | – | – | – | 6.88 | – | – | – | – | – | – | – | – | – | –
[27] | – | – | – | – | – | – | – | – | – | – | – | – | – | – | – | – | – | – | 18.8
[28] | – | – | – | – | 5.67 | – | – | – | – | – | – | – | – | – | – | – | – | – | –
[29] | – | – | – | – | – | – | – | – | – | – | – | – | – | – | – | – | – | 9.6 | –

Settings | EC10 Any effect [µM] | EC10 Body length Decrease [µM] | EC10 Pericard size Increase [µM] | EC20 Any effect [µM] | EC20 Body length Decrease [µM] | EC20 Pericard size Increase [µM] | EC50 Any effect [µM] | EC50 Body length Decrease [µM] | EC50 LMR ligth decrease [µM] | EC50 Pericard size Increase [µM] | EC50 STC bell shape [µM] | spontaneous tail coiling frequency
[6], exposure time: 2 dpf | – | – | – | – | – | – | 12.4 | – | – | – | – | –
[6], exposure time: 4 dpf | – | – | – | – | – | – | 8.22 | – | 8.24 | – | – | –
[6], exposure time: 25 h | – | – | – | – | – | – | – | – | – | – | 50.9 | –
[7], exposure time: 2 dpf | – | – | – | – | 12.1 | – | – | – | – | – | – | –
[7], exposure time: 4 dpf | – | – | – | – | 7.11 | – | – | – | – | – | – | –
[9], exposure time: 2 dpf | – | – | – | – | – | 11.1 | – | – | – | – | – | –
[9], exposure time: 4 dpf | – | – | – | – | – | 6.72 | – | – | – | – | – | –
[10], exposure time: 2 dpf | – | 11.1 | – | – | – | – | – | – | – | – | – | –
[10], exposure time: 4 dpf | – | 6.47 | – | – | – | – | – | – | – | – | – | –
[11], exposure time: 2 dpf | – | – | – | 11.3 | – | – | – | – | – | – | – | –
[11], exposure time: 4 dpf | – | – | – | 5.45 | – | – | – | – | – | – | – | –
[17], exposure time: 2 dpf | 10.7 | – | – | – | – | – | – | – | – | – | – | –
[17], exposure time: 4 dpf | 4.28 | – | – | – | – | – | – | – | – | – | – | –
[18], exposure time: 2 dpf | – | – | 10.5 | – | – | – | – | – | – | – | – | –
[18], exposure time: 4 dpf | – | – | 5.93 | – | – | – | – | – | – | – | – | –
[20], exposure time: 2 dpf | – | – | – | – | – | – | – | 14.2 | – | – | – | –
[20], exposure time: 4 dpf | – | – | – | – | – | – | – | 8.33 | – | – | – | –
[22], exposure time: 2 dpf | – | – | – | – | – | – | – | – | – | 12.2 | – | –
[22], exposure time: 4 dpf | – | – | – | – | – | – | – | – | – | 8.32 | – | –
[23], 1 µM | – | – | – | – | – | – | – | – | – | – | – | 2.73
[23], 2 µM | – | – | – | – | – | – | – | – | – | – | – | 2.93
[23], 3.123 µM | – | – | – | – | – | – | – | – | – | – | – | 2.81
[23], 4 µM | – | – | – | – | – | – | – | – | – | – | – | 2.63
[23], 5.12 µM | – | – | – | – | – | – | – | – | – | – | – | 2.43
[23], 6.25 µM | – | – | – | – | – | – | – | – | – | – | – | 2.41
[23], 6.4 µM | – | – | – | – | – | – | – | – | – | – | – | 2.64
[23], 8 µM | – | – | – | – | – | – | – | – | – | – | – | 3.93
[23], 10 µM | – | – | – | – | – | – | – | – | – | – | – | 3.72
[23], 12.5 µM | – | – | – | – | – | – | – | – | – | – | – | 3.42
[23], 15.6 µM | – | – | – | – | – | – | – | – | – | – | – | 4.34
[23], 25 µM | – | – | – | – | – | – | – | – | – | – | – | 4.62
[23], 31.25 µM | – | – | – | – | – | – | – | – | – | – | – | 3.8
[23], 50 µM | – | – | – | – | – | – | – | – | – | – | – | 2.15
[23], 62.5 µM | – | – | – | – | – | – | – | – | – | – | – | 1.4
[23], 100 µM | – | – | – | – | – | – | – | – | – | – | – | 0
[23], 150 µM | – | – | – | – | – | – | – | – | – | – | – | 0
